Laboratory results from the NIST ThermoML archive (doi:10.1016/j.jct.2012.11.011).

Test: xn = mol fraction of the nth substance listed
Conditions: Liquid, Vibrating tube method

COC(=O)OC [dimethyl carbonate] + CCCCCCCC
mass density [kg/m3]
Conditions	x1 = 0.0535	x1 = 0.0978	x1 = 0.3935	x1 = 0.496	x1 = 0.5475	x1 = 0.5937	x1 = 0.7002	x1 = 0.8013	x1 = 0.8979	x1 = 0.9502
288.15 K, 100 kPa	716.4	723.8	791.6	822.9	840.9	854.9	899.6	941.7	1005	1036.8
288.15 K, 5000 kPa	719.8	727.9	796.9	827.5	844.6	862	904.6	952.4	1009	1043.2
288.15 K, 10000 kPa	723.6	731.9	801.1	831.8	849	866.2	908.9	956.9	1013.3	1047.5
288.15 K, 20000 kPa	730.9	739.3	808.8	839.6	857	874.3	917	965	1021.7	1055.7
288.15 K, 30000 kPa	737.5	745.8	816	846.9	864.3	881.6	924.4	972.5	1029.1	1063.1
288.15 K, 40000 kPa	743.7	752	822.8	853.8	871.2	888.7	931.6	979.7	1036.3	1070.4
298.15 K, 100 kPa	707.4	715.3	782.6	812.6	829.5	846.5	888.6	936	992.1	1025.9
298.15 K, 5000 kPa	712.2	720.2	787.8	817.9	834.9	851.7	893.9	941.4	997.3	1031.1
298.15 K, 10000 kPa	715.9	724.1	791.8	822	839	856.1	898.1	945.6	1001.5	1035.3
